Some test systems named below: NCI/ADR-RES ovarian; HCT-15 colon; COLO 205 colon; M19-MEL melanoma; OVCAR-5 ovarian; SNB-78 CNS; A549 NSCLC; MDA-MB-435; MOLT-4 leukemia; RXF-631 renal.
What all share (experiment): DTP human tumour cell line panel, 48 h

Consider 22 compounds from PubChem BioAssay (NCI).

“And” between values parts separate entries of the source, which are not always exact repeats. Identical values can stand only once.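 The compound was tested at five concentrations on cells cultured in 96-well plates, with a 48-hour exposure period. GI50: concentration for 50% inhibition of growth. TGI marks complete inhibition of growth.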 Some results are limits rather than exact numbers.

On to `CC1OC(CC(=O)O)Cc2c1c(O)c1c(O)cc(-c3cc(=O)c4c(=O)c5c(c(=O)c=4c3=O)CC(CC(=O)O)OC5C)c(O)c1c2O` (configuration not stated), for which the GI50 (commonly the concentration giving 50% growth inhibition) in the assay on NCI/ADR-RES ovarian was 59.6 µM; with HCT-15 colon it was 61.6 µM; in the assay with COLO 205 colon, 29.9 µM; with OVCAR-5 ovarian, 53.1 µM; in the assay on A549 NSCLC, 53.7 µM; in the assay on MDA-MB-435 it was 16.8 µM. In addition, the concentration for total growth inhibition (TGI) (commonly the concentration giving total growth inhibition) in the assay on HCT-15 colon is 16.7 µM; in the assay with COLO 205 colon, 18.1 µM and 92.9 µM; with M19-MEL melanoma it was 49 µM; in the assay on OVCAR-5 ovarian, more than 91.1 µM; in the assay on SNB-78 CNS, more than 73 µM; with A549 NSCLC, more than 100 µM. Also, the TGI in the assay with MDA-MB-435 is 36.7 µM; in the assay with MOLT-4 leukemia, 21.7 µM.

As for `Cc1cccc(N=Cc2ccc(N(CCC#N)S(=O)(=O)c3ccccc3)cc2C)c1`, the TGI with HCT-15 colon, in the assay with COLO 205 colon, in the assay on M19-MEL melanoma, with OVCAR-5 ovarian, in the assay on RXF-631 renal and in the assay with A549 NSCLC was more than 100 µM each time. Further, in the assay on MOLT-4 leukemia, the TGI is more than 100 µM.

For `O=S1(=O)c2cc(S(=O)(=O)n3ccnc3)ccc2NC2=NCCCN21`, the total growth inhibition concentration (TGI) in the assay on COLO 205 colon was 35.2 µM; in the assay with M19-MEL melanoma, more than 100 µM; with OVCAR-5 ovarian it was more than 100 µM; with A549 NSCLC it was more than 100 µM; with MOLT-4 leukemia, more than 100 µM.

For the compound `Cc1ccc(/C=N/NS(=O)(=O)c2ccccc2)cc1C`, the TGI in the assay with HCT-15 colon, in the assay on COLO 205 colon, in the assay on M19-MEL melanoma, in the assay with OVCAR-5 ovarian, in the assay with SNB-78 CNS and in the assay with A549 NSCLC was more than 100 µM each time. In the assay on MOLT-4 leukemia, this compound gave a total growth inhibition concentration (TGI) of more than 100 µM.

`[Co].[O-]c1cccnc1C=Nc1ccccc1.[OH3+]`: the GI50 with HCT-15 colon is 50.4 µM; in the assay on COLO 205 colon, more than 100 µM; in the assay on M19-MEL melanoma, more than 100 µM; in the assay on OVCAR-5 ovarian it was more than 100 µM; with SNB-78 CNS, more than 100 µM; in the assay on A549 NSCLC, more than 100 µM. Also, in the assay with MOLT-4 leukemia, the GI50 is 78.3 µM. For the same compound, the total growth inhibition concentration (TGI) in the assay with HCT-15 colon, with COLO 205 colon, with M19-MEL melanoma, in the assay with OVCAR-5 ovarian, in the assay on SNB-78 CNS and with A549 NSCLC was more than 100 µM in each case. Also, the TGI in the assay with MOLT-4 leukemia is more than 100 µM.

On to `CC(=O)OC1=C2CC[C@@H]3C(CC[C@@]4(C)C3CC[C@@H]4OC(C)=O)[C@@]2(C)CC(C#N)C1=O` (some centres not stated), for which the concentration for total growth inhibition (TGI) in the assay on HCT-15 colon is more than 100 µM; in the assay on COLO 205 colon, 43.5 µM; with OVCAR-5 ovarian it was more than 100 µM; in the assay on SNB-78 CNS, 90.8 µM; in the assay with A549 NSCLC it was more than 100 µM; in the assay with MOLT-4 leukemia it was 51.3 µM.

Regarding `CC(=O)NCc1c(C(N)=O)ncn1Cc1ccccc1`, the TGI in the assay on HCT-15 colon, in the assay on COLO 205 colon, in the assay on M19-MEL melanoma, with RXF-631 renal, with SNB-78 CNS and in the assay on A549 NSCLC was more than 100 µM throughout. Moreover, in the assay with MOLT-4 leukemia, the TGI is more than 100 µM.

In the case of `CS(=O)(=O)NNS(=O)(=O)c1ccc(F)cc1`, the total growth inhibition concentration (TGI) in the assay on HCT-15 colon, with COLO 205 colon, in the assay on M19-MEL melanoma, with RXF-631 renal, in the assay on A549 NSCLC and in the assay on MOLT-4 leukemia was more than 100 µM throughout.

`CCc1cccc(C(C)CC)c1NC(=O)C(=O)Cc1nc2ccccc2o1` (configuration not stated): the TGI in the assay on HCT-15 colon, in the assay on COLO 205 colon, in the assay with M19-MEL melanoma, with OVCAR-5 ovarian, with SNB-78 CNS and with A549 NSCLC was more than 50 µM throughout. The compound further displayed a TGI in the assay with MOLT-4 leukemia of more than 42 µM.

Take `CC1SC2=NC3=C(c4ccccc4C3=O)C(c3ccccc3Cl)N2C1=O` (configuration not stated): the TGI with HCT-15 colon, with COLO 205 colon, in the assay with M19-MEL melanoma, in the assay on OVCAR-5 ovarian, in the assay with RXF-631 renal and in the assay with A549 NSCLC was more than 100 µM in each case. The compound further returned a total growth inhibition concentration (TGI) with MOLT-4 leukemia of more than 100 µM.

`CNS(=O)(=O)NNS(=O)(=O)c1ccc(F)cc1`: the TGI in the assay with HCT-15 colon, in the assay with COLO 205 colon, in the assay with M19-MEL melanoma, in the assay on RXF-631 renal, in the assay on A549 NSCLC and in the assay on MOLT-4 leukemia was more than 100 µM throughout.

For `N#CC(C(=O)CCC(=O)Nc1cccc(C(F)(F)F)c1)c1ccccc1` (configuration not stated), the concentration for total growth inhibition (TGI) with HCT-15 colon, in the assay with M19-MEL melanoma, in the assay on OVCAR-5 ovarian, with SNB-78 CNS, with A549 NSCLC and with MOLT-4 leukemia was more than 100 µM throughout.

With `CCCS(=O)(=O)Nc1cccc(Nc2ncnc3cc(NC(=O)CCl)ccc23)c1Cl`, the GI50 with NCI/ADR-RES ovarian was 6.95 µM; with HCT-15 colon it was 1.6 µM; with COLO 205 colon it was 1.2 µM; in the assay with OVCAR-5 ovarian, 2.01 µM; in the assay on A549 NSCLC it was 4.99 µM; in the assay with MDA-MB-435 it was 1.47 µM. Further, in the assay on MOLT-4 leukemia, the GI50 is 1.04 µM. The total growth inhibition concentration (TGI) with NCI/ADR-RES ovarian is 25 µM; in the assay on HCT-15 colon it was 6.95 µM; in the assay with COLO 205 colon, 5.51 µM; in the assay on OVCAR-5 ovarian, 5.64 µM; in the assay on A549 NSCLC, 10.1 µM; in the assay with MDA-MB-435, 5.76 µM. Further, in the assay on MOLT-4 leukemia, the TGI was found to be 7.13 µM.

In the case of `Cc1cc2c(=O)c(C)n[nH]c2c(C#N)c1C`, the concentration for total growth inhibition (TGI) in the assay on HCT-15 colon, in the assay on COLO 205 colon, with M19-MEL melanoma, with OVCAR-5 ovarian, with RXF-631 renal and with A549 NSCLC was more than 100 µM throughout. The TGI in the assay on MOLT-4 leukemia was more than 100 µM.

For the compound `COc1ccc(C2CC(c3ccc(OC)cc3O)=NN2c2ccc(S(N)(=O)=O)cc2)cc1` (configuration not stated), the GI50 was 8.09 µM in the assay with NCI/ADR-RES ovarian; 5.98 µM in the assay on HCT-15 colon; 5.98 µM with COLO 205 colon; 79.9 µM in the assay on OVCAR-5 ovarian; 6.36 µM in the assay on A549 NSCLC; 6.56 µM in the assay with MDA-MB-435. In addition, the GI50 with MOLT-4 leukemia was 2.88 µM. Besides, the TGI with NCI/ADR-RES ovarian was more than 100 µM; in the assay with HCT-15 colon it was more than 100 µM; with COLO 205 colon, 20.1 µM; with OVCAR-5 ovarian it was more than 100 µM; with A549 NSCLC, more than 100 µM; in the assay with MDA-MB-435 it was more than 100 µM. In the assay with MOLT-4 leukemia, this compound registered a concentration for total growth inhibition (TGI) of 36.6 µM.

In the case of `O=C(O)CN1C(=O)CN=C(c2ccccn2)c2cc(Cl)ccc21`, the TGI in the assay with NCI/ADR-RES ovarian, in the assay on HCT-15 colon, with COLO 205 colon, in the assay with OVCAR-5 ovarian, with A549 NSCLC and with MDA-MB-435 was more than 100 µM each time. This compound came in with a TGI with MOLT-4 leukemia of 21.7 µM.

Take `O=C1/C(=C/c2ccc(F)cc2)CN(C(=O)C(Cl)Cl)C/C1=C\c1ccc(F)cc1`: the 50% growth inhibitory concentration (GI50) is 0.327 µM in the assay on NCI/ADR-RES ovarian; 0.145 µM with HCT-15 colon; 0.353 µM in the assay on COLO 205 colon; 0.323 µM in the assay with OVCAR-5 ovarian; 0.324 µM in the assay with A549 NSCLC; 0.212 µM in the assay with MDA-MB-435. Besides, in the assay on MOLT-4 leukemia, the 50% growth inhibitory concentration (GI50) is 0.309 µM. Also, the concentration for total growth inhibition (TGI) in the assay on NCI/ADR-RES ovarian came out at 1.71 µM; in the assay with HCT-15 colon, 0.682 µM; with COLO 205 colon it was 1.42 µM; in the assay with OVCAR-5 ovarian, 1.1 µM; in the assay with A549 NSCLC, 1.38 µM; in the assay with MDA-MB-435 it was 0.486 µM. This compound came in with a TGI with MOLT-4 leukemia of more than 100 µM.

`N#CC1(N2CCCC2)CCC2(CC1)OCCO2`: the concentration for total growth inhibition (TGI) in the assay with HCT-15 colon was more than 100 µM; in the assay on COLO 205 colon, more than 10 µM; in the assay on M19-MEL melanoma, more than 10 µM; with OVCAR-5 ovarian, more than 100 µM; in the assay on SNB-78 CNS it was more than 100 µM; in the assay with A549 NSCLC, more than 100 µM. This compound also gave a TGI with MOLT-4 leukemia of more than 100 µM.

`CCOC(=O)c1c2c(n3ccc(NC(=O)CCN4CCCCC4)cc13)C(=O)c1ncccc1C2=O`: the GI50 is 1.14 µM in the assay with NCI/ADR-RES ovarian; 1.13 µM in the assay with HCT-15 colon; 1.18 µM with COLO 205 colon; 1.38 µM in the assay on OVCAR-5 ovarian; 0.0547 µM in the assay on A549 NSCLC; 1.16 µM in the assay on MDA-MB-435. The GI50 in the assay on MOLT-4 leukemia is 1.42 µM. The TGI with NCI/ADR-RES ovarian worked out at 3.66 µM; in the assay with HCT-15 colon, 2.86 µM; in the assay with COLO 205 colon, 2.75 µM; with OVCAR-5 ovarian, 3.2 µM; with A549 NSCLC it was 2.81 µM; in the assay on MDA-MB-435 it was 2.47 µM. The compound further returned a TGI in the assay with MOLT-4 leukemia of 4.04 µM.

On to `CCCCCCCC(=O)OCC1OC(n2cc(F)c(=O)[nH]c2=O)C(N)C(O)C1O` (configuration not stated), for which the total growth inhibition concentration (TGI) with HCT-15 colon, in the assay on COLO 205 colon, with M19-MEL melanoma, with OVCAR-5 ovarian, in the assay with SNB-78 CNS and in the assay on A549 NSCLC was more than 100 µM in each case. The TGI in the assay with MOLT-4 leukemia was more than 100 µM.

For `O=C(c1ccc2ccccc2c1)c1c(C(F)(F)F)n([O-])c2cc(C(F)(F)F)ccc2[n+]1=O`, the GI50 in the assay on NCI/ADR-RES ovarian is 2.08 µM; with HCT-15 colon, 1.69 µM; in the assay on COLO 205 colon, 1.92 µM; in the assay with OVCAR-5 ovarian, 2.03 µM; in the assay with A549 NSCLC it was 1.66 µM; in the assay with MDA-MB-435 it was 1.71 µM. In addition, the GI50 in the assay with MOLT-4 leukemia is 1.49 µM. In addition, the total growth inhibition concentration (TGI) in the assay with NCI/ADR-RES ovarian stood at 4.8 µM; in the assay with HCT-15 colon, 3.4 µM; in the assay with COLO 205 colon, 4.05 µM; in the assay with OVCAR-5 ovarian, 4.79 µM; with A549 NSCLC, 3.51 µM; in the assay with MDA-MB-435, 3.31 µM. Besides, the TGI in the assay with MOLT-4 leukemia is 3.9 µM.

With `COC(=O)/C(=N\NC(N)=O)C(C#N)c1ccccc1` (configuration not stated), the total growth inhibition concentration (TGI) with HCT-15 colon, in the assay on COLO 205 colon, with M19-MEL melanoma, with OVCAR-5 ovarian, in the assay on SNB-78 CNS and in the assay on A549 NSCLC was more than 100 µM in each case. The concentration for total growth inhibition (TGI) in the assay on MOLT-4 leukemia was more than 100 µM.
